According to ChEMBL document CHEMBL1795286, “A concise synthesis and antimicrobial activities of 3-polyamino-23,24-bisnorcholanes as steroid-polyamine conjugates” (2011):

Tests used:
[1] = tested on: Staphylococcus aureus; assay: Antimicrobial activity against Staphylococcus aureus ATCC 6538P after 18 hrs by twofold agar dilution method; type: functional
[2] = tested on: Staphylococcus aureus; assay: Antimicrobial activity against Staphylococcus aureus ATCC 25923 after 18 hrs by twofold agar dilution method; type: functional; conditions: ATCC 25923, 18 h, read-out: MIC
[3] = tested on: Staphylococcus aureus; assay: Antimicrobial activity against Staphylococcus aureus giorgio after 18 hrs by twofold agar dilution method; type: functional
[4] = tested on: Staphylococcus aureus; assay: Antimicrobial activity against Staphylococcus aureus 77 after 18 hrs by twofold agar dilution method; type: functional; conditions: Staphylococcus aureus, 77, 18 h; read-out: MIC
[5] = tested on: Staphylococcus aureus; assay: Antimicrobial activity against Staphylococcus aureus 241 after 18 hrs by twofold agar dilution method; type: functional; conditions: Staphylococcus aureus, 241, 18 h; read-out: MIC
[6] = tested on: Staphylococcus epidermidis; assay: Antimicrobial activity against Staphylococcus epidermidis 887E after 18 hrs by twofold agar dilution method; type: functional; conditions: read-out: MIC
[7] = tested on: Enterococcus faecalis; assay: Antimicrobial activity against Enterococcus faecalis ATCC 29212 after 18 hrs by twofold agar dilution method; type: functional; conditions: ATCC 29212, 18 h
[8] = tested on: Escherichia coli; assay: Antimicrobial activity against Escherichia coli ATCC 25922 after 18 hrs by twofold agar dilution method; type: functional; conditions: ATCC 25922, 18 h
[9] = tested on: Escherichia coli; assay: Antimicrobial activity against Escherichia coli ATCC 10536 after 18 hrs by twofold agar dilution method; type: functional; conditions: ATCC 10536, 18 h
[10] = tested on: Escherichia coli; assay: Antimicrobial activity against Escherichia coli 3190Y after 18 hrs by twofold agar dilution method; type: functional
[11] = tested on: Escherichia coli; assay: Antimicrobial activity against Escherichia coli 851E after 18 hrs by twofold agar dilution method; type: functional
[12] = tested on: Salmonella typhimurium; assay: Antimicrobial activity against Salmonella Typhimurium ATCC 14028 after 18 hrs by two-fold agar dilution method; type: functional, Salmonella enterica subsp. enterica serovar Typhimurium; conditions: Salmonella enterica, ATCC 14028, 18 h
[13] = tested on: Salmonella typhimurium; assay: Antimicrobial activity against Salmonella typhimurium ATCC 13311 after 18 hrs by twofold agar dilution method; type: functional, Salmonella enterica subsp. enterica serovar Typhimurium; conditions: Salmonella enterica, ATCC 13311, 18 h
[14] = tested on: Klebsiella pneumoniae; assay: Antimicrobial activity against Klebsiella pneumoniae 2011E after 18 hrs by twofold agar dilution method; type: functional
[15] = tested on: Moraxella catarrhalis; assay: Antimicrobial activity against Moraxella catarrhalis 25240 after 18 hrs by twofold agar dilution method; type: functional; conditions: Moraxella catarrhalis, 25240, 18 h
[16] = tested on: Moraxella catarrhalis; assay: Antimicrobial activity against Moraxella catarrhalis C2431 after 18 hrs by twofold agar dilution method; type: functional; conditions: C2431, 18 h
[17] = tested on: Proteus vulgaris; assay: Antimicrobial activity against Proteus vulgaris 6059 after 18 hrs by twofold agar dilution method; type: functional; conditions: Proteus vulgaris, 6059, 18 h
[18] = tested on: Morganella morganii; assay: Antimicrobial activity against Morganella morganii 1375E after 18 hrs by twofold agar dilution method; type: functional
[19] = tested on: Citrobacter freundii; assay: Antimicrobial activity against Citrobacter freundii 8090 after 18 hrs by twofold agar dilution method; type: functional; conditions: Citrobacter freundii, 8090, 18 h
[20] = tested on: Citrobacter koseri; assay: Antimicrobial activity against Citrobacter diversus 2046 after 18 hrs by twofold agar dilution method; type: functional; conditions: Citrobacter koseri, 2046, 18 h
[21] = tested on: Enterobacter cloacae; assay: Antimicrobial activity against Enterobacter cloacae ATCC 27508 after 18 hrs by twofold agar dilution method; type: functional; conditions: ATCC 27508, 18 h
[22] = tested on: Enterobacter cloacae; assay: Antimicrobial activity against Enterobacter cloacae P99 after 18 hrs by twofold agar dilution method; type: functional; conditions: P99, 18 h
[23] = tested on: Serratia marcescens; assay: Antimicrobial activity against Serratia marcescens ATCC 27117 after 18 hrs by twofold agar dilution method; type: functional; conditions: ATCC 27117, 18 h
[24] = tested on: Serratia marcescens; assay: Antimicrobial activity against Serratia marcescens 1826E after 18 hrs by twofold agar dilution method; type: functional
[25] = tested on: Acinetobacter calcoaceticus; assay: Antimicrobial activity against Acinetobacter calcoaceticus ATCC 15473 after 18 hrs by twofold agar dilution method; type: functional; conditions: ATCC 15473, 18 h
[26] = tested on: Micrococcus luteus; assay: Antimicrobial activity against Micrococcus luteus ATCC 9341 after 18 hrs by twofold agar dilution method; type: functional; conditions: ATCC 9341, 18 h, read-out: MIC
[27] = tested on: Bacillus cereus; assay: Antimicrobial activity against Bacillus cereus ATCC 27348 after 18 hrs by twofold agar dilution method; type: functional; conditions: ATCC 27348, 18 h
[28] = tested on: Bacillus subtilis; assay: Antimicrobial activity against Bacillus subtilis ATCC 6633 after 18 hrs by twofold agar dilution method; type: functional; conditions: ATCC 6633, 18 h
[29] = tested on: Bacillus licheniformis; assay: Antimicrobial activity against Bacillus licheniformis EMR after 18 hrs by twofold agar dilution method; type: functional
[30] = tested on: Pseudomonas aeruginosa; assay: Antimicrobial activity against Pseudomonas aeruginosa 6065Y after 18 hrs by twofold agar dilution method; type: functional
[31] = tested on: Klebsiella aerogenes; assay: Antimicrobial activity against Klebsiella aerogenes harboring beta-lactamase SHV-1 1976E mutant after 18 hrs by twofold agar dilution method; type: functional

SMILES	MIC [1] [µg/mL]	MIC [2] [µg/mL]	MIC [3] [µg/mL]	MIC [4] [µg/mL]	MIC [5] [µg/mL]	MIC [6] [µg/mL]	MIC [11] [µg/mL]	MIC [12] [µg/mL]	MIC [13] [µg/mL]	MIC [14] [µg/mL]	MIC [17] [µg/mL]	MIC [18] [µg/mL]	MIC [19] [µg/mL]	MIC [20] [µg/mL]	MIC [21] [µg/mL]	MIC [22] [µg/mL]	MIC [23] [µg/mL]	MIC [24] [µg/mL]	MIC [25] [µg/mL]	MIC [26] [µg/mL]	other results
C[C@H](CO)[C@H]1CC[C@H]2[C@@H]3CC[C@@H]4C[C@@H](NCCCNCCCCNCCCN)CC[C@]4(C)[C@H]3CC[C@]12C.Cl.Cl.Cl.Cl	1	16	4	2	2	4	> 32	> 32	> 32	> 32	> 32	> 32	> 32	> 32	> 32	> 32	> 32	> 32	> 32	2	MIC ([7]; read-out: MIC): 32 µg/mL; MIC ([8]; read-out: MIC): 32 µg/mL; MIC ([9]; read-out: MIC): 32 µg/mL; MIC ([10]; read-out: MIC): 32 µg/mL; MIC [15]: > 32 µg/mL; MIC [16]: > 32 µg/mL; MIC ([27]; read-out: MIC): < 32 µg/mL; MIC [28]: 2 µg/mL; MIC [29]: > 32 µg/mL; MIC [30]: > 32 µg/mL; MIC [31]: > 32 µg/mL
C[C@H](CO)[C@H]1CC[C@H]2[C@@H]3CC[C@H]4C[C@H](NCCCNCCCCNCCCN)CC[C@]4(C)[C@H]3CC[C@]12C.Cl.Cl.Cl.Cl	4	16	16	16	4	8	> 32	> 32	> 32	> 32	> 32	> 32	> 32	> 32	> 32	> 32	> 32	> 32	> 32	16	MIC ([7]; read-out: MIC): < 32 µg/mL; MIC [8]: > 32 µg/mL; MIC ([9]; read-out: MIC): < 32 µg/mL; MIC ([10]; read-out: MIC): < 32 µg/mL; MIC ([15]; read-out: MIC): < 32 µg/mL; MIC ([16]; read-out: MIC): < 32 µg/mL; MIC ([27]; read-out: MIC): < 32 µg/mL; MIC [28]: 8 µg/mL; MIC ([29]; read-out: MIC): 32 µg/mL; MIC [30]: > 32 µg/mL; MIC [31]: > 32 µg/mL
C[C@H](CO)[C@H]1CC[C@H]2[C@@H]3[C@H](N)C[C@H]4C[C@@H](NCCCNCCCCN)CC[C@]4(C)[C@H]3CC[C@]12C.Cl.Cl.Cl	16	32	32	8	16	32	> 32	> 32	> 32	> 32	> 32	> 32	> 32	> 32	> 32	> 32	> 32	> 32	> 32	16	MIC ([7]; read-out: MIC): < 32 µg/mL; MIC ([8]; read-out: MIC): < 32 µg/mL; MIC [9]: > 32 µg/mL; MIC [10]: > 32 µg/mL; MIC [15]: > 32 µg/mL; MIC ([16]; read-out: MIC): < 32 µg/mL; MIC ([27]; read-out: MIC): < 32 µg/mL; MIC [28]: 16 µg/mL; MIC ([29]; read-out: MIC): < 32 µg/mL; MIC [30]: > 32 µg/mL; MIC [31]: > 32 µg/mL
C[C@H](CO)[C@H]1CC[C@H]2[C@@H]3[C@H](O)C[C@H]4C[C@@H](NCCCNCCCCN)CC[C@]4(C)[C@H]3CC[C@]12C.Cl.Cl.Cl	16	< 32	32	16	16	32	> 32	> 32	> 32	> 32	> 32	> 32	> 32	> 32	> 32	> 32	> 32	> 32	> 32	16	MIC [7]: > 32 µg/mL; MIC ([8]; read-out: MIC): < 32 µg/mL; MIC [9]: > 32 µg/mL; MIC ([10]; read-out: MIC): < 32 µg/mL; MIC ([15]; read-out: MIC): < 32 µg/mL; MIC [16]: > 32 µg/mL; MIC [27]: > 32 µg/mL; MIC [28]: 16 µg/mL; MIC ([29]; read-out: MIC): < 32 µg/mL; MIC [30]: > 32 µg/mL; MIC [31]: > 32 µg/mL
